Data on 38 compounds can be found in US20110003994A1, “CYCLOALKANE DERIVATIVE” (Dainippon Sumitomo Pharma Co., Ltd., priority 2009, published 2011).

The target in data set [1] is T1, human D2 receptor (Homo sapiens, UniProt P14416).
T1 construct: expressed in transfected cells
Nature of the data set: Binding assay for D2 receptor using [3H] spiperone. The settings on record: test compound 100 nM, cell membrane expressing human D2 receptor, read-out: Binding inhibitory rate (%) for D2 receptor (100 nM). How it is done: In general, there is clinically some correlation between antipsychotic action and antagonistic action for dopamine D2 receptor. The experimental method used herein is a binding assay for D2 receptor which is one of the tests evaluating D2 receptor action in vitro, According to the known method (e.g. Japan, J. Pharmacol., 53, 321-329 (1990)), the above-captioned experiment was carried out using [3H] spiperone, i.e., the binding amount of [3H] spiperone to the preparation cell membrane expressing human D2 receptor was measured, and then the binding inhibitory rate by the test compound (100 nM) was measured/calculated.

Data set [2] relates to methamphetamine-induced movement of the rat. Nature of the data set: Anti-methamphetamine test (movement measured with Supermex). The class given is in vivo. To be noted: male rat, intraperitoneal, 30 min before methamphetamine 1 mg/kg i.p.; movement measured for 90 minutes; dose for 50% inhibition; read-out: Antidopaminergic action ED50. How it is done:
The anti-methamphetamine test which is a typical in vivo test for evaluating antipsychotic action in the clinical study was carried out as follows. The test substance was intraperitoneally administered to a male rat, and 30 minutes later methamphetamine (1 mg/kg) was intraperitoneally administered to the male rat. Ten minutes after completing the administrations, the movement of the rat was measured with Supermex for 90 minutes, and the dose for 50% inhibition: ED50 value was calculated.

The nature of data set [3]: Cataleptic action (pole test). To be noted: in vivo, ip; male rat, intraperitoneal, one hour after administration; dose inducing catalepsy in 50% of the rats. Here is the method: The cataleptic action which is a typical central nervous system side-effect of antipsychotic agents in the clinical study was evaluated as follows. The test substance was intraperitoneally administered to a male rat. One hour later, the rat was made to hold on a pole three times which is horizontally set at a height of 9 cm. When the rat retained the unnatural stretched pose for 30 seconds even one time out of three times, the rat was evaluated as cataleptic positive. The dose for inducing 50% the rats to the catalepsy: ED50 value was calculated.

Some results are limits rather than exact numbers.

As usually defined, the ED50 is the dose that gives a 50% effect, or the effect in half of the subjects.

T1 sequence (P14416 whole entry): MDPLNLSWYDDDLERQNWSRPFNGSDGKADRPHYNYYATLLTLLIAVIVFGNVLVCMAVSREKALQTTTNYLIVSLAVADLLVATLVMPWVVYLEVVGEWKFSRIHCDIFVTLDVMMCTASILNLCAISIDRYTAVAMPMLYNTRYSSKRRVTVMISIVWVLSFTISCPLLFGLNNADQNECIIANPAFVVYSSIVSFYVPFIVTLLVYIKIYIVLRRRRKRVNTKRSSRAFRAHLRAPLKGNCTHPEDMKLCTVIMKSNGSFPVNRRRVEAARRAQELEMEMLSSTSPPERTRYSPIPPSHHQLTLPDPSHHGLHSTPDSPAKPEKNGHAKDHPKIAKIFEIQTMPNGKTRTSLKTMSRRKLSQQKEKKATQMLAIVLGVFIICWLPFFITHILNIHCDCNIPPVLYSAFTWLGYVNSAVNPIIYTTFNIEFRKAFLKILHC

For the compound `Cc1cccc(/C=C/C(=O)NC[C@@H]2CCCC[C@@H]2CN2CCN(c3nsc4ccccc34)CC2)c1` [Example 13], in data set [1], the inhibition at 0.1 µM worked out at 92%. On to `COc1cccc(/C=C/C(=O)NC[C@@H]2CCCC[C@@H]2CN2CCN(c3nsc4ccccc34)CC2)c1OC` [Example 14], for which, in data set [1], the inhibition at 0.1 µM is 92%. The same measure, in the same setting: the result for `COc1ccccc1/C=C/C(=O)NC[C@@H]1CCCC[C@@H]1CN1CCN(c2nsc3ccccc23)CC1` [Example 15] reads 93%. Turning to `O=C(/C=C/c1ccccc1[N+](=O)[O-])NC[C@@H]1CCCC[C@@H]1CN1CCN(c2nsc3ccccc23)CC1` [Example 16], in data set [1], the inhibition at 0.1 µM was found to be 94%. Still for that read-out and setting: to `O=C(/C=C/c1ccc2c(c1)OCO2)NC[C@@H]1CCCC[C@@H]1CN1CCN(c2nsc3ccccc23)CC1` [Example 21] belongs 91%.

Turning to `COc1ccccc1/C=C/C(=O)NC[C@H]1CCCC[C@@H]1CN1CCN(c2nsc3ccccc23)CC1` [Example 32], the inhibition at 0.1 µM in data set [1] is 91%.

As for `O=C(/C=C/c1ccccc1[N+](=O)[O-])NC[C@H]1CCCC[C@@H]1CN1CCN(c2nsc3ccccc23)CC1` [Example 33], the inhibition at 0.1 µM in data set [1] was 90%. Take `O=C(NC[C@H]1CCCC[C@@H]1CN1CCN(c2nsc3ccccc23)CC1)c1ccc2c(c1)OCO2` [Example 36]: the inhibition at 0.1 µM in data set [1] came out at 92%.

As for `O=C(Cc1ccc(Cl)cc1)NC[C@H]1CCCC[C@@H]1CN1CCN(c2nsc3ccccc23)CC1` [Example 37], the inhibition at 0.1 µM in data set [1] amounted to 90%. Regarding `O=C(/C=C/c1ccccc1F)NC[C@H]1CCCC[C@@H]1CN1CCN(c2nsc3ccccc23)CC1` [Example 44], the inhibition at 0.1 µM in data set [1] stood at 91%. Turning to `Cc1ccccc1/C=C/C(=O)NC[C@H]1CCCC[C@H]1CN1CCN(c2nsc3ccccc23)CC1` [Example 60], the inhibition at 0.1 µM in data set [1] came to 91%. On the same count and under the same terms, the result for `COc1cccc(/C=C/C(=O)NC[C@H]2CCCC[C@H]2CN2CCN(c3nsc4ccccc34)CC2)c1OC` [Example 62] reads 91%; that for `O=C(/C=C/c1ccccc1[N+](=O)[O-])NC[C@H]1CCCC[C@H]1CN1CCN(c2nsc3ccccc23)CC1` [Example 64], 92%. On the same count and under the same terms, the result for `O=C(NC[C@H]1CCCC[C@H]1CN1CCN(c2nsc3ccccc23)CC1)c1ccc2c(c1)OCO2` [Example 67] reads 90%; that for `O=C(/C=C/c1ccc2c(c1)OCO2)NC[C@H]1CCCC[C@H]1CN1CCN(c2nsc3ccccc23)CC1` [Example 69], 91%; that for `O=C(NC[C@@H]1CCCC[C@H]1CN1CCN(c2nsc3cc(F)ccc23)CC1)c1ccc2c(c1)OCO2` [Example 82], 94%. Same read-out and setting: the result for `O=C(/C=C/c1ccc2c(c1)OCO2)NC[C@@H]1CCCC[C@H]1CN1CCN(c2nsc3cc(F)ccc23)CC1` [Example 84] reads 95%; that for `O=C1C2C3CCC(C3)C2C(=O)N1C[C@@H]1CCCC[C@H]1CN1CCN(c2nsc3cc(F)ccc23)CC1` (stereo partly drawn) [Example 85], 91%. `O=C(NC[C@H]1CCC[C@@H]1CN1CCN(c2nsc3ccccc23)CC1)c1cccc(Oc2ccccc2)c1` [Example 87]: the inhibition at 0.1 µM in data set [1] is 93%. Further, the ED50 in data set [2] was found to be 4.5 mg/kg. In data set [3], this compound yielded an ED50 at 1 h above 135 mg/kg.

Consider `O=S(=O)(NC[C@H]1CCC[C@@H]1CN1CCN(c2nsc3ccccc23)CC1)c1cccc(-c2ccccc2)c1` [Example 100], for which the inhibition at 0.1 µM in data set [1] stood at 91%. The same measure, in the same setting: the result for `COc1ccc(OC)c(S(=O)(=O)NC[C@H]2CCC[C@@H]2CN2CCN(c3nsc4ccccc34)CC2)c1` [Example 101] reads 94%; that for `O=C(NC[C@H]1CCC[C@@H]1CN1CCN(c2nsc3ccccc23)CC1)c1ccc2c(c1)OCO2` [Example 102], 95%. On the same count and under the same terms, the result for `O=C(/C=C/c1ccc2c(c1)OCO2)NC[C@H]1CCC[C@@H]1CN1CCN(c2nsc3ccccc23)CC1` [Example 104] reads 92%; that for `Cc1cccc(/C=C/C(=O)NC[C@H]2C[C@@H]2CN2CCN(c3nsc4ccccc34)CC2)c1` [Example 137], 95%; that for `COc1ccccc1/C=C/C(=O)NC[C@H]1C[C@@H]1CN1CCN(c2nsc3ccccc23)CC1` [Example 139], 91%. `C=C1[C@H](CNC(=O)/C=C/c2ccccc2C)[C@H]1CN1CCC(c2noc3cc(F)ccc23)CC1` [Example 185]: in data set [1], the inhibition at 0.1 µM was found to be 92%. On the same count and under the same terms, to `C=C1[C@H](CNS(=O)(=O)c2cccc(-c3ccccc3)c2)[C@H]1CN1CCC(c2noc3cc(F)ccc23)CC1` [Example 190] belongs 92%; to `C=C1[C@H](CNC(=O)c2ccc3c(c2)OCO3)[C@H]1CN1CCC(c2noc3cc(F)ccc23)CC1` [Example 192], 90%. In the case of `O=C(/C=C/c1cccc(Cl)c1)NC[C@@H]1CCCC[C@H]1CN1CCC(c2noc3cc(F)ccc23)CC1` [Example 200], in data set [1], the inhibition at 0.1 µM was determined as 92%. In addition, the ED50 in data set [2] worked out at 0.24 mg/kg. The compound further came in with an ED50 at 1 h in data set [3] above 7.2 mg/kg.

For `O=C(NC[C@@H]1CCCC[C@H]1CN1CCC(c2noc3cc(F)ccc23)CC1)c1ccc2c(c1)OCO2` [Example 221], the inhibition at 0.1 µM in data set [1] came to 93%. On the same count and under the same terms, to `O=C(/C=C/c1ccc2c(c1)OCO2)NC[C@@H]1CCCC[C@H]1CN1CCC(c2noc3cc(F)ccc23)CC1` [Example 222] belongs 93%.

For `O=C1C2C3CCC(C3)C2C(=O)N1C[C@@H]1CCCC[C@H]1CN1CCC(c2noc3ccccc23)CC1` (stereo partly drawn) [Example 223], the inhibition at 0.1 µM in data set [1] is 94%.

As for `O=C1C2C3CCC(C3)C2C(=O)N1C[C@@H]1CCCC[C@H]1CN1CCC(c2noc3ccc(F)cc23)CC1` (stereo partly drawn) [Example 225], the inhibition at 0.1 µM in data set [1] came out at 94%. Still for that read-out and setting: the result for `O=C(/C=C/c1ccccc1[N+](=O)[O-])NC[C@@H]1CCCC[C@H]1CN1CCC(c2n[nH]c3cc(F)ccc23)CC1` [Example 239] reads 95%. The same measure, in the same setting: the result for `O=S(=O)(NC[C@@H]1CCCC[C@H]1CN1CCC(c2n[nH]c3cc(F)ccc23)CC1)c1cccc(-c2ccccc2)c1` [Example 240] reads 85%; that for `COc1ccc(OC)c(S(=O)(=O)NC[C@@H]2CCCC[C@H]2CN2CCC(c3n[nH]c4cc(F)ccc34)CC2)c1` [Example 241], 95%; that for `O=C(NC[C@@H]1CCCC[C@H]1CN1CCC(c2n[nH]c3cc(F)ccc23)CC1)c1ccc2c(c1)OCO2` [Example 242], 95%. Same read-out and setting: to `O=C(Cc1ccc(Cl)cc1)NC[C@@H]1CCCC[C@H]1CN1CCC(c2n[nH]c3cc(F)ccc23)CC1` [Example 243] belongs 94%.
